Experimental data taken from patent US7928114B2, “Crystalline erlotinib” (Synthon BV, priority 2006, dated 2011).
Entries after “also recorded” stand apart in the source; their conditions may differ. Where a name gives a salt, the structure may show the parent alone.

Experiments:
[1] = XRPD under non-ambient conditions (humidity / elevated temperature); type: physicochemical; conditions: 30° C./10-90% RH and 50° C./75% RH
TGA hygroscopicity = type: physicochemical
Text: TGA confirmed that Form II can be considered non-hygroscopic.

[2] = Relative thermodynamic stability of erlotinib free base crystal forms (prolonged stirring in 2-propanol; transitions on heating); type: physicochemical; conditions: recrystallization from 2-propanol with prolonged stirring; Forms I and III convert to Form II on heating
Text: Recrystallization from 2-propanol may initially give Form II with a small amount of another Form. However, prolonged stirring results in pure Form II.
The hydrates of the invention can be converted into anhydrous forms and vice versa. For instance, any of the hydrates provides for the erlotinib free base Form II by heating.
The transition of hydrate Form I into Form II proceeds via melting of Form I after which the melt recrystallizes to Form II. The transition of Form III into Form II occurs via the solid-solid transformation.

[3] = WO 2004/072049 (Form E vs Form B), WO 99/55683 (mesylate vs hydrochloride); cited from earlier work
[4] = WO 01/34574, WO 2004/072049; cited from earlier work

## C#Cc1cccc(Nc2ncnc3cc(OCCOC)c(OCCOC)cc23)c1 [Form II, [6,7-bis(2-methoxyethoxy)-quinazolin-4-yl]-(3-ethynylphenyl)amine]
[1]
  polymorphic transitions under humid conditions at elevated temperatures: does not undergo polymorphic transitions
TGA hygroscopicity
  hygroscopicity: non-hygroscopic
[2]
  thermodynamic stability relative to other free base forms: thermodynamically more stable Form; also recorded: thermodynamically most stable form

## C#Cc1cccc(Nc2ncnc3cc(OCCOC)c(OCCOC)cc23)c1 [Form E, erlotinib hydrochloride]
[3]
  solubility relative to comparator form/salt: higher solubility

## erlotinib mesylate [mesylate salt of erlotinib]
[3]
  solubility relative to comparator form/salt: enhanced solubility compared to the hydrochloride

## C#Cc1cccc(Nc2ncnc3cc(OCCOC)c(OCCOC)cc23)c1 [Form B, erlotinib hydrochloride]
[4]
  stability relative to other erlotinib hydrochloride polymorphs: thermodynamically more stable than Form A
